{
  "source": "patent US20240218066A1",
  "about": "“USE OF ANTI-PD-1 ANTIBODY IN COMBINATION WITH FIRST-LINE CHEMOTHERAPY IN TREATMENT OF ADVANCED NON-SMALL CELL LUNG CANCER” (SHANGHAI JUNSHI BIOSCIENCES CO., LTD., priority 2021, published 2024)",
  "key": {"[1]": {"tested_on": "patients with untreated advanced NSCLC", "test": "Phase III clinical study, efficacy assessed by the BIRC according to RECIST 1.1", "format": "in vivo, human", "design": "reduction of the risk of progression or death, compared to standard chemotherapy / increase of PFS rate at 6 months compared to control group / increase of PFS rate at 12 months compared to control group / increase in ORR compared to control group: concentration or dose not given beside the values", "protocol": "About 450 patients with advanced NSCLC not accompanied by EGFR-sensitive mutations and ALK fusions were randomly divided into two groups according to a 2:1 ratio, with the test group receiving toripalimab in combination with first-line standard chemotherapy and the control group receiving placebo in combination with first-line standard chemotherapy. Stratification was performed according to PD-L1 expression (TC≥1% vs TC<1%), smoking status (frequent smoking vs no smoking or little smoking), and pathological type (squamous cell carcinoma vs non-squamous cell carcinoma).\nAfter randomization, the patients were subjected to treatment in the induction stage for 4-6 cycles, during which the patients received toripalimab/placebo+first-line standard chemotherapy. After the induction stage was over, the patients were subjected to treatment in the maintenance stage, during which patients with squamous cell carcinoma continued to receive toripalimab/placebo treatment until progressive disease, and patients with non-squamous cell carcinoma continued to receive toripalimab/placebo+pemetrexed treatment until progressive disease.\nTumor assessments were performed once every 6 weeks for the first 12 months of the study stage according to RECIST 1.1 and iRECIST; after 12 months, tumor assessments were performed every 9 weeks until progressive disease, initiation of a new anti-tumor therapy, intolerable toxicity, withdrawal of informed consent or death, 2 years of treatment with toripalimab, or other reasons as specified in the protocol, whichever occurred first.\nEligible subjects must (1) be patients with histologically and/or cytologically confirmed locally advanced (stage IIIB or IIIC) and stage IV non-small cell lung cancer that is inoperable and cannot receive radical concurrent chemoradiotherapy; (2) have at least one measurable lesion (according to RECIST 1.1); (3) have not received any systemic treatment (patients with recurrence more than 6 months after completion of prior neoadjuvant/adjuvant therapy may also be enrolled); (4) be aged between 18 and 75 years; (5) have ECOG of 0-1; (6) have an expected survival of ≥3 months; and (7) be available to provide tissue specimens for PD-L1 testing.\nUnless otherwise specified, the efficacy analysis was based on the ITT set, which was analyzed by groups according to the treatment regimen to which patients were assigned at randomization.\nThe progression-free survival rate and median progression-free survival of the JS001+first-line standard treatment group and the placebo+first-line standard treatment group at different time points after the start of treatment were estimated by the Kaplan-Meier method, and Kaplan-Meier curves were plotted. The 95% confidence interval for progression-free survival rate at different time points (6 months and 1 year) was estimated using the Greenwood formula. The 95% confidence interval for median progression-free survival was estimated using the Brookmeyer-Crowley method where the log-log function conversion was used to reach normal approximation. Statistical test was performed on the inter-group difference by a stratified log-rank method for the total population. Statistical test was performed on the inter-group difference by a non-stratified log-rank method for the subpopulations. A stratified COX proportional hazards model was used to estimate the inter-group hazard ratio (HR) and the corresponding 95% confidence interval, and the tied events were processed by an exact method. Stratification analysis was performed using 3 stratification factors in the randomization process, including: (1) PD-L1 expression (TC≥1% vs TC<1%); (2) smoking status (frequent smoking vs no smoking or little smoking); and (3) pathological type (squamous cell carcinoma vs non-squamous cell carcinoma).\nFor analysis of secondary efficacy endpoints OS, DOR, and TTR, the method described above as applied to the primary efficacy endpoint PFS was used. […]"}, "[2]": {"tested_on": "patients with untreated advanced NSCLC", "test": "Phase III clinical study, biomarker analysis (WES, TMB, gene mutations)", "format": "in vivo, human", "protocol": "As of Oct. 31, 2021, whole exome sequencing (WES) was performed on tumor biopsies and matched peripheral blood from 394 patients.\nTumor mutation burden (TMB) was determined by analyzing somatic mutations within coding regions of the human genome. The median TMB in each group was 6.6 mutations per million base pairs (Mb). Tumor tissue from 122 (26.2%) patients had more than 10 mutations/Mb, 72.1% of which was also PD-L1 TC≥1% (see FIG. 6a). […] However, compared to TMB-L (i.e., low TMB) patients (TMB<10 mutations/Mb). TMB-H patients had better PFS in the toripalimab group than in the placebo group (interaction P=0.026) (see FIGS. 7a and 7b).\nGene set enrichment analysis was performed on the relevant genes to identify over-represented biological pathways. […] In addition, patients with alterations in the IL-7 signaling pathway (HGF, IRS1, IRS2, and SMARCA4) or chromatin remodeling SWI/SNF complex (SMARCA4, SMARCA2, and PBRM1) also had better PFS results from combination therapy with toripalimab (see FIGS. 12-13)."}, "[3]": {"conditions": "patients with non-squamous cell carcinoma"}, "[4]": {"conditions": "patients with squamous cell carcinoma"}},
  "data": [
    {"substance": "JS001 + standard first-line chemotherapy: toripalimab 240 mg Q3W plus albumin-bound paclitaxel+carboplatin (squamous) or pemetrexed+cisplatin/carboplatin (non-squamous)", "values": [
      {"measurement": "PFS rate at 6 months", "setting": "[1]; ITT", "value": 65.3, "unit": "%"},
      {"measurement": "PFS rate at 12 months", "setting": "[1]; ITT", "value": 38.9, "unit": "%"},
      {"measurement": "increase of PFS rate at 6 months compared to control group", "setting": "[1]; ITT", "value": 16, "unit": "%"},
      {"measurement": "increase of PFS rate at 12 months compared to control group", "setting": "[1]; ITT", "value": 22.7, "unit": "%"},
      {"measurement": "HR for PFS (test vs control)", "setting": "[1]; ITT population", "value": 0.61},
      {"measurement": "PFS prolonged by, compared to standard chemotherapy", "setting": "[1]; ITT population", "value": 2.5, "unit": "months"},
      {"measurement": "reduction of the risk of progression or death, compared to standard chemotherapy", "setting": "[1]; ITT population", "value": 39, "unit": "%"},
      {"measurement": "median PFS", "setting": "[1]; ITT population, RECIST 1.1", "value": 8.3, "unit": "months"},
      {"measurement": "Best overall response: Complete response (CR)", "setting": "[1]; non-squamous cell carcinoma", "value": "3 (1.9) N (%)"},
      {"measurement": "Best overall response: Deletion", "setting": "[1]; non-squamous cell carcinoma", "value": "8 (4.9) N (%)"},
      {"measurement": "Best overall response: Non-complete response/non-progressive disease (Non CR/Non PD)", "setting": "[1]; non-squamous cell carcinoma", "value": "0 N (%)"},
      {"measurement": "Best overall response: Not evaluable (NE)", "setting": "[1]; non-squamous cell carcinoma", "value": "0 N (%)"},
      {"measurement": "Best overall response: Partial response (PR)", "setting": "[1]; non-squamous cell carcinoma", "value": "94 (58.0) N (%)"},
      {"measurement": "Best overall response: Progressive disease (PD)", "setting": "[1]; non-squamous cell carcinoma", "value": "8 (4.9) N (%)"},
      {"measurement": "Duration of response (DOR), Median (95% confidence interval)", "setting": "[1]; non-squamous cell carcinoma", "value": "NE (6.9, NE)"},
      {"measurement": "Objective response rate (ORR)", "setting": "[1]; non-squamous cell carcinoma", "value": "97 (59.9) N (%)"},
      {"measurement": "DCR", "setting": "[1]; overall population", "value": 90.9, "unit": "%"},
      {"measurement": "increase in ORR compared to control group", "setting": "[1]; overall population", "value": 20.8, "unit": "%"},
      {"measurement": "ORR", "setting": "[1]; overall population, RECIST v1.1", "value": 65.7, "unit": "%"},
      {"measurement": "HR for PFS (test vs control)", "setting": "[1]; [3]", "value": 0.55},
      {"measurement": "ORR", "setting": "[1]; [3]", "value": 59.9, "unit": "%"},
      {"measurement": "increase in ORR compared to control group", "setting": "[1]; [3]", "value": 27.4, "unit": "%"},
      {"measurement": "median PFS", "setting": "[1]; [3]", "value": 10.3, "unit": "months"},
      {"measurement": "HR for PFS (test vs control)", "setting": "[1]; [4]", "value": 0.63},
      {"measurement": "ORR", "setting": "[1]; [4]", "value": 72.1, "unit": "%"},
      {"measurement": "increase in ORR compared to control group", "setting": "[1]; [4]", "value": 13.3, "unit": "%"},
      {"measurement": "median PFS", "setting": "[1]; [4]", "value": 6.9, "unit": "months"},
      {"measurement": "Best overall response: Complete response (CR)", "setting": "[1]; squamous cell carcinoma", "value": "0 N (%)"},
      {"measurement": "Best overall response: Deletion", "setting": "[1]; squamous cell carcinoma", "value": "8 (5.4) N (%)"},
      {"measurement": "Best overall response: Non-complete response/non-progressive disease (Non CR/Non PD)", "setting": "[1]; squamous cell carcinoma", "value": "1 (0.7) N (%)"},
      {"measurement": "Best overall response: Not evaluable (NE)", "setting": "[1]; squamous cell carcinoma", "value": "0 N (%)"},
      {"measurement": "Best overall response: Partial response (PR)", "setting": "[1]; squamous cell carcinoma", "value": "106 (72.1) N (%)"},
      {"measurement": "Best overall response: Progressive disease (PD)", "setting": "[1]; squamous cell carcinoma", "value": "3 (2.0) N (%)"},
      {"measurement": "Duration of response (DOR), Median (95% confidence interval)", "setting": "[1]; squamous cell carcinoma", "value": "5.7 (5.2, 9.5)"},
      {"measurement": "Objective response rate (ORR)", "setting": "[1]; squamous cell carcinoma", "value": "106 (72.1) N (%)"},
      {"measurement": "response rate (ORR)", "setting": "[2]; ITT population, as of Oct. 31, 2021", "value": 65.7, "unit": "%"},
      {"measurement": "ORR", "setting": "[2]; TMB-H patients (TMB≥10 mutations/Mb), as of Oct. 31, 2021", "value": 72.7, "unit": "%"},
      {"measurement": "median PFS", "setting": "[2]; patients carrying FA/PI3K/Akt pathway mutations", "value": 8.9, "unit": "months"},
      {"measurement": "median PFS", "setting": "[2]; patients carrying the SMARCA4 mutation (n=48), especially non-squamous cell subgroup (n=33)", "value": 9.9, "unit": "months"}
    ]}
  ]
}
